This experiment deals with EGFR-positive A431 cells. Nature of the experiment: cell uptake / internalization studies on A431 cells. It counts as cell-based, human. Particulars: 1 h incubation. As to the method: The cellular uptake was differentiated by membrane-bound and internalized activity. In these experiments, no EGFR-specific interaction of any of the radiolabeled agents [^68Ga]Ga-1–[^68Ga]Ga-11 was observed (Figure 5).
Internalization studies of [^68Ga]Ga-1–[^68Ga]Ga-11 on A431 cells. For this purpose, the A431 cells (10^6 per well) were seeded into 24-well cell culture multiwell plates (cellstar) and incubated for 2 days at 37 °C in a humidified CO2 (5%) atmosphere. Directly before the experiment, each well was washed twice with fresh internalization medium (PBS/DMEM, high glucose, 1/99, v/v), followed by the addition of internalization medium to a final volume of 1.35 mL per well. […] Afterwards, the medium was separated from the cells and each well was washed twice with 1 mL of ice-cold internalization medium, the washing solutions were added to the collected internalization medium and measured in a γ-counter (these combined solutions contain the unbound fraction). To determine the surface-bound fraction, each well was further incubated twice for 5 min with ice-cold glycine-buffer (pH 2.8, 0.05 M, 1 mL) and the supernatants were collected and measured. The internalized fraction was determined by lysing the cells twice for 5 min with sodium hydroxide solution (2 M, 1 mL), collection and measurement of the combined solutions. […]

As to “[^125I]I-hEGF: ^125I-labeled hEGF from PerkinElmer, reference compound in cell uptake and competitor in displacement assays”, the “activity, internalized + bound to membrane, blocked (overall cellular uptake under blocking)” value (blocking with 100-fold excess hEGF) stood at 1.9%. Where the note is “non-blocking conditions”, the “activity, internalized + bound to membrane, unblocked (overall cellular uptake)” value was 33.6%.
